From ChEMBL document CHEMBL2440027, “Further SAR studies on bicyclic basic merbarone analogues as potent antiproliferative agents” (Bioorg Med Chem, 2013)

Key:
SK-OV-3 = assay: Growth inhibition of human SKOV3 cells assessed as cell growth at 10 uM after 48 hrs by sulforhodamine B assay relative to control; assay type: functional; conditions: SK-OV-3, 48 h, read-out: Activity
OVCAR-8 [1] = assay: Growth inhibition of human OVCAR8 cells assessed as cell growth at 10 uM after 48 hrs by sulforhodamine B assay relative to control; assay type: functional; conditions: OVCAR-8, 48 h, read-out: Activity
M14 [2] = assay: Growth inhibition of human M14 cells assessed as cell growth at 10 uM after 48 hrs by sulforhodamine B assay relative to control; assay type: functional; conditions: M14, 48 h, read-out: Activity
HT-29 = assay: Growth inhibition of human HT-29 cells assessed as cell growth at 10 uM after 48 hrs by sulforhodamine B assay relative to control; assay type: functional; conditions: HT-29, 48 h, read-out: Activity
CCRF-CEM = assay: Growth inhibition of human CCRF-CEM cells assessed as cell growth at 10 uM after 48 hrs by sulforhodamine B assay relative to control; assay type: functional; conditions: read-out: Activity
HeLa = assay: Cytotoxicity against human HeLa cells; assay type: functional, cell-based; conditions: Homo sapiens, HeLa
MCF7 = assay: Cytotoxicity against human MCF7 cells; assay type: functional, cell-based
[3] = biological target: DNA topoisomerase 2-alpha (Homo sapiens, UniProt P11388); assay: Inhibition of human topoisomerase 2alpha-mediated relaxation of supercoiled pBR322 after 1 hr by ethidium bromide staining
BT-549 = assay: Growth inhibition of human BT549 cells after 48 hrs by sulforhodamine B assay; assay type: functional; conditions: BT-549, 48 h; for CC50: read-out: LC50 (the source's name)
RXF 393 = assay: Growth inhibition of human RXF393 cells after 48 hrs by sulforhodamine B assay; assay type: functional; conditions: RXF 393, 48 h; for CC50: read-out: LC50 (the source's name)
ACHN = assay: Growth inhibition of human ACHN cells after 48 hrs by sulforhodamine B assay; assay type: functional
OVCAR-8 [4] = assay: Growth inhibition of human OVCAR8 cells after 48 hrs by sulforhodamine B assay; assay type: functional; conditions: OVCAR-8, 48 h
IGROV-1 = assay: Growth inhibition of human IGROV1 cells after 48 hrs by sulforhodamine B assay; assay type: functional; conditions: IGROV-1, 48 h; for CC50: read-out: LC50 (the source's name)
M14 [5] = assay: Growth inhibition of human M14 cells after 48 hrs by sulforhodamine B assay; assay type: functional; conditions: M14, 48 h; for CC50: read-out: LC50 (the source's name)
LOX IMVI = assay: Growth inhibition of human LOXIMVI cells after 48 hrs by sulforhodamine B assay; assay type: functional
SF-268 = assay: Growth inhibition of human SF268 cells after 48 hrs by sulforhodamine B assay; assay type: functional; conditions: SF-268, 48 h
HCT-116 = assay: Growth inhibition of human HCT116 cells after 48 hrs by sulforhodamine B assay; assay type: functional; conditions: HCT-116, 48 h
K562 = assay: Growth inhibition of human K562 cells after 48 hrs by sulforhodamine B assay; assay type: functional; conditions: K562, 48 h
TK-10 = assay: Growth inhibition of human TK10 cells assessed as cell growth at 10 uM after 48 hrs by sulforhodamine B assay relative to control; assay type: functional; conditions: TK-10, 48 h, read-out: Activity
HOP-92 = assay: Growth inhibition of human HOP92 cells assessed as cell growth at 10 uM after 48 hrs by sulforhodamine B assay relative to control; assay type: functional; conditions: HOP-92, 48 h, read-out: Activity
[6] = read-out: LC50 (the source's name)

DNA topoisomerase 2-alpha, sequence (P11388 whole entry): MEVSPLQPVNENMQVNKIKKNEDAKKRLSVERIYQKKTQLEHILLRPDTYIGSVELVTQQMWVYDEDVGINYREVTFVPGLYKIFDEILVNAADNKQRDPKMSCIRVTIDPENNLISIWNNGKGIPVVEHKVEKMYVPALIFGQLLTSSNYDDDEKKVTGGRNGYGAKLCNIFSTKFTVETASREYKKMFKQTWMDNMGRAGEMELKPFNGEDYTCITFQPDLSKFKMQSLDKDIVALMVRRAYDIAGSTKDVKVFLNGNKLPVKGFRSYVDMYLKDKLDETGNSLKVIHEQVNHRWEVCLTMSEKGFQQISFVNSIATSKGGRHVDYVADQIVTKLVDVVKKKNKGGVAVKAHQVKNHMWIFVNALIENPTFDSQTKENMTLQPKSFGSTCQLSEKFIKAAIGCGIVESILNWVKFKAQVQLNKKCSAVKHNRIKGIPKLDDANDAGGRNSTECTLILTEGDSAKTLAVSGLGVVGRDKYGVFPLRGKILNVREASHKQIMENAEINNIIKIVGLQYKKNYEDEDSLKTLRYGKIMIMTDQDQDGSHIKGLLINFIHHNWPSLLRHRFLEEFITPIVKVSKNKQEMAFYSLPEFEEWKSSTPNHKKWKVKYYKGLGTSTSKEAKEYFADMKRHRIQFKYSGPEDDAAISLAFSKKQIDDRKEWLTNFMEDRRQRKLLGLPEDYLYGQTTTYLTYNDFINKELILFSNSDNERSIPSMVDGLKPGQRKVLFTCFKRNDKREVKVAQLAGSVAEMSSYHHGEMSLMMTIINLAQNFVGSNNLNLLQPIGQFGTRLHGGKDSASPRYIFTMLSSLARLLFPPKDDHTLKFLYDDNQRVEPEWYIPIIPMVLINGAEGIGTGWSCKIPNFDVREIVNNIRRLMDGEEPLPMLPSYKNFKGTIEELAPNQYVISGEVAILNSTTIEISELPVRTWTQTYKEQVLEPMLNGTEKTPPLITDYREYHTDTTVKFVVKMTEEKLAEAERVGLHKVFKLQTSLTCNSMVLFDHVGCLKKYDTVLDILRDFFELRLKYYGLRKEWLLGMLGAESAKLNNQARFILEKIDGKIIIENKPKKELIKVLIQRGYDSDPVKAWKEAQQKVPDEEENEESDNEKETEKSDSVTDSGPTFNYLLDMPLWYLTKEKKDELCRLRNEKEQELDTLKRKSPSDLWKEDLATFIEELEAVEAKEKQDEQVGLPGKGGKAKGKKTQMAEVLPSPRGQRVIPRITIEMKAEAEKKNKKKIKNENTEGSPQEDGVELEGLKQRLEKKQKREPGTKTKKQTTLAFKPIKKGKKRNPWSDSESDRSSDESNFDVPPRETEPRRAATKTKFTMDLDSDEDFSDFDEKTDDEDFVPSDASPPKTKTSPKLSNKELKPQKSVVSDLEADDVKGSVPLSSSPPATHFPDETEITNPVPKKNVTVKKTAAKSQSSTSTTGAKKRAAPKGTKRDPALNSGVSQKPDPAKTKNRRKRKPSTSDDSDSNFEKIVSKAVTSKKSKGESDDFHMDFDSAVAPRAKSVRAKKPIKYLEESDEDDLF

| Compound | growth at 10 µM (SK-OV-3) [%] | growth at 10 µM (OVCAR-8 [1]) [%] | growth at 10 µM (M14 [2]) [%] | growth at 10 µM (HT-29) [%] | growth at 10 µM (CCRF-CEM) [%] | GI50 (BT-549) [µM] | TGI (BT-549) [µM] | CC50 (BT-549) [µM] | GI50 (RXF 393) [µM] | TGI (RXF 393) [µM] | CC50 (RXF 393) [µM] | GI50 (ACHN) [µM] | LC50 (ACHN) [µM] | TGI (ACHN) [µM] | GI50 (OVCAR-8 [4]) [µM] | TGI (OVCAR-8 [4]) [µM] | GI50 (IGROV-1) [µM] | TGI (IGROV-1) [µM] | CC50 (IGROV-1) [µM] | GI50 (M14 [5]) [µM] | also measured |
| --- | --- | --- | --- | --- | --- | --- | --- | --- | --- | --- | --- | --- | --- | --- | --- | --- | --- | --- | --- | --- | --- |
| CN(C)CCNc1nc2c(c(=N)n1-c1ccccc1)c(=S)n(-c1ccccc1)c(=S)n2-c1ccccc1 | 76.3 | 33.6 | -84.4 | -35.7 | -8.26 | 5.3 | 21.3 | 62.1 | 1.2 | 3.1 | 8.1 | 3.2 | 34.1 | 11.3 | 4.1 | 15.7 | 8.1 | 23 | 57.5 | 1.8 | IC50 (HeLa): 12.6 µM; IC50 (MCF7): 16 µM; IC50 [3]: > 100 µM; CC50 (OVCAR-8 [4]; [6]): 58.7 µM; TGI (M14 [5]): 4.3 µM; CC50 (M14 [5]): 89.1 µM; GI50 (LOX IMVI): 1.4 µM; LC50 (concentration killing 50% of cells) (LOX IMVI): 5.3 µM; TGI (LOX IMVI): 2.7 µM; GI50 (SF-268): 4.1 µM; LC50 (SF-268): 45.6 µM; TGI (SF-268): 15.3 µM; GI50 (HCT-116): 2.7 µM; TGI (HCT-116): 16 µM; GI50 (K562): 0.4 µM; LC50 (concentration killing 50% of cells) (K562): 6.8 µM; TGI (K562): 2.2 µM; growth at 10 µM (TK-10): 47.7% |
| CCCCN(CCCC)CCCNc1nc2c(c(=N)n1-c1ccccc1)c(=S)n(-c1ccccc1)c(=S)n2-c1ccccc1 | -86.5 | -36.1 | -86.3 | -63.3 | -78.4 | 1.5 | 3.2 | 6.7 | 0.2 | 0.5 | 36.8 | 0.5 | 4.1 | 1.6 | 0.9 | 2.7 | 1.9 | 3.8 | 7.5 | 0.2 | growth at 10 µM (HOP-92): -66.9%; TGI (M14 [5]): 0.4 µM; CC50 (M14 [5]): 0.8 µM; GI50 (LOX IMVI): 0.2 µM; LC50 (concentration killing 50% of cells) (LOX IMVI): 0.6 µM; TGI (LOX IMVI): 0.3 µM; GI50 (SF-268): 1 µM; LC50 (SF-268): 4.7 µM; TGI (SF-268): 2.2 µM; GI50 (HCT-116): 0.3 µM; TGI (HCT-116): 1.1 µM; CC50 (HCT-116; [6]): 3.4 µM; GI50 (K562): 0.2 µM; growth at 10 µM (TK-10): -89.6% |
